These results are taken from ChEMBL document CHEMBL1151617, “Antitumor agents, 65. Brusatol and cleomiscosin-A, antileukemic principles from Brucea javanica” (1984).

For orientation: T/C means the ratio of treated to control.

Assay type in all cases: functional
Assay [1] deals with P388. Nature of the assay: In vivo antitumor activity against mouse P388 cells at 0.125 ug/kg/day, ip.
The test system of assay [2] is P388. Nature of the assay: Cytotoxicity against mouse P388 cells. The note with it: read-out: ED50 (the source's name).
The subject of another assay is KB. Nature of the assay: Cytotoxicity against human KB cells. Particulars: read-out: ED50 (the source's name).

SMILES strings stand for the structures. Converted amounts (≈) assume the structure as drawn. Where only a bound is given, the exact number is not on record here.

Regarding `COC(=O)[C@]12OC[C@]34[C@H]([C@@H](O)[C@@H]1O)[C@@]1(C)CC(=O)C(O)=C(C)[C@@H]1C[C@H]3OC(=O)[C@H](OC(=O)C=C(C)C)[C@@H]24` [BRUSATOL], the T/C in the assay on P388 [1] is on record as 158%.
Consider `COc1cc([C@H]2Oc3c(OC)cc4ccc(=O)oc4c3O[C@@H]2CO)ccc1O` [CLEOMISCOSIN A], for which the EC50 with P388 [2] was 0.4 µg/mL (≈ 1.04 µM); in the assay with KB, above 10 µg/mL.
